Assay results as given in patent publication US20240293400A1, “NOVEL AZAINDOLE DERIVATIVES AS ANTIVIRAL AGENTS” (Centre National de la Recherche Scientifique, priority 2021, published 2024).

What was measured:
Experiment in all cases: Kinase panel Z'-LYTE/Adapta SelectScreen
Type in all cases: biochemical
Details in all cases: 100 nM in 1% DMSO
SYK = SYK (Homo sapiens (Human), UniProt P43405)
Description: (§1) The inhibitory activity of the compounds on a panel of kinases including, inter alia, AXL and FLT3 was evaluated by Thermo Fisher Scientific using Z′-LYTE® and Adapta® Select Screen technology.
(§2) The fluorescence-based biochemical test uses coupled enzymes and is based on the difference in sensitivity of the phosphorylated and non-phosphorylated peptides to proteolytic cleavage. The peptide substrate is labeled with 2 fluorophores—one at each end—allowing fluorescence transfer (FRET).
(§3) Compounds 1, 2 and 3 are tested in wells at the final concentration of 100 nM in 1% DMSO.

MET (cMet) = MET (cMet) (Homo sapiens (Human), UniProt P08581)
Description: as §1, §2, §3

ALK = ALK (Homo sapiens (Human), UniProt Q9UM73)
Description: as §1, §2, §3

MAPK1 (ERK2) = MAPK1 (ERK2) (Homo sapiens (Human), UniProt P28482)
MAPK1 (ERK2), sequence (P28482 whole entry): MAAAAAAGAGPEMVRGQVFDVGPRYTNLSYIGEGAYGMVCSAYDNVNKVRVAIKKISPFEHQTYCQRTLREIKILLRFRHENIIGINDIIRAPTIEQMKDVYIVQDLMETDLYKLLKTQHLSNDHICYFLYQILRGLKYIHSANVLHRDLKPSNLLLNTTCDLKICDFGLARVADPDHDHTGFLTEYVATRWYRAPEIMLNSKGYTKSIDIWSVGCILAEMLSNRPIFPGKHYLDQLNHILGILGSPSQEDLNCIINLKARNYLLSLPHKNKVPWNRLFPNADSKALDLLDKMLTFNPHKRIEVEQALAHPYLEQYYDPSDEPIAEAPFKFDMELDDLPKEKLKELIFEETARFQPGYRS
Description: as §1, §2, §3

TYRO3 (RSE) = TYRO3 (RSE) (Homo sapiens (Human), UniProt Q06418)
Description: as §1, §2, §3

CHUK (IKKalpha) = CHUK (IKKalpha) (Homo sapiens (Human), UniProt O15111)
Description: as §1, §2, §3

JAK3 = JAK3 (Homo sapiens (Human), UniProt P52333)
Description: as §1, §2, §3

PLK1 = PLK1 (Homo sapiens (Human), UniProt P53350)
Description: as §1, §2, §3

FGFR2 = FGFR2 (Homo sapiens (Human), UniProt P21802)
Description: as §1, §2, §3

PTK2 (FAK) = PTK2 (FAK) (Homo sapiens (Human), UniProt Q05397)
PTK2 (FAK), sequence (Q05397 whole entry): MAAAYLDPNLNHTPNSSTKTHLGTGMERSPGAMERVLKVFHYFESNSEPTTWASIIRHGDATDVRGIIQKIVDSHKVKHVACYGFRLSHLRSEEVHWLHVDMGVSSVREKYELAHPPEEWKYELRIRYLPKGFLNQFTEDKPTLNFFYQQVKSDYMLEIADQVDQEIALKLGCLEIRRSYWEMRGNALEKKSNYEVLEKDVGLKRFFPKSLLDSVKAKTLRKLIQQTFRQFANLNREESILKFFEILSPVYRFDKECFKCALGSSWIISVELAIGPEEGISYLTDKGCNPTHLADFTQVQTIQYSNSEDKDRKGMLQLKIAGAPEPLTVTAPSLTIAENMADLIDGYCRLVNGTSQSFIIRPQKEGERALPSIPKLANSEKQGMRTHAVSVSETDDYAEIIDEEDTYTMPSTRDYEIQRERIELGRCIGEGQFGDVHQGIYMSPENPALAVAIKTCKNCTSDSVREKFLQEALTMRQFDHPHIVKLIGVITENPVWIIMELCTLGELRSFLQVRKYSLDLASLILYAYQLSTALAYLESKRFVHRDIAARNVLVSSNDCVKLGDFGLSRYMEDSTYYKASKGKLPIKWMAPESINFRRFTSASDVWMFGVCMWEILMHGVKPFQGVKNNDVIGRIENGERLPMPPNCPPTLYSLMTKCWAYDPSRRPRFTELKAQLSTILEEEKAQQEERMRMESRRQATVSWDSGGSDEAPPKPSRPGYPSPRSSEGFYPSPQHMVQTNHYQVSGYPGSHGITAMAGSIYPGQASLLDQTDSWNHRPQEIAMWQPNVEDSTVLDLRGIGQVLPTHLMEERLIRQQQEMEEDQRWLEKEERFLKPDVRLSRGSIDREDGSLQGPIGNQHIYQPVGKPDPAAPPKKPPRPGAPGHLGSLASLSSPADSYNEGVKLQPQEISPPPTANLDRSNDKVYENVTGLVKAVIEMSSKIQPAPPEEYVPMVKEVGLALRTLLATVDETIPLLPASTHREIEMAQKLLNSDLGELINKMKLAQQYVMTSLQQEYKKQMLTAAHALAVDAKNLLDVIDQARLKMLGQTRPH
Description: as §1, §2, §3

KDR (VEGFR2) = KDR (VEGFR2) (Homo sapiens (Human), UniProt P35968)
Description: as §1, §2, §3

CSK = CSK (Homo sapiens (Human), UniProt P41240)
Description: as §1, §2, §3

AURKA (Aurora A) = AURKA (Aurora A) (Homo sapiens (Human), UniProt O14965)
Description: as §1, §2, §3

FLT1 (VEGFR1) = FLT1 (VEGFR1) (Homo sapiens (Human), UniProt P17948)
Description: as §1, §2, §3

LCK = LCK (Homo sapiens (Human), UniProt P06239)
Description: as §1, §2, §3

NTRK1 (TRKA) = NTRK1 (TRKA) (Homo sapiens (Human), UniProt P04629)
Description: as §1, §2, §3

BTK = BTK (Homo sapiens (Human), UniProt Q06187)
BTK, sequence (Q06187 whole entry): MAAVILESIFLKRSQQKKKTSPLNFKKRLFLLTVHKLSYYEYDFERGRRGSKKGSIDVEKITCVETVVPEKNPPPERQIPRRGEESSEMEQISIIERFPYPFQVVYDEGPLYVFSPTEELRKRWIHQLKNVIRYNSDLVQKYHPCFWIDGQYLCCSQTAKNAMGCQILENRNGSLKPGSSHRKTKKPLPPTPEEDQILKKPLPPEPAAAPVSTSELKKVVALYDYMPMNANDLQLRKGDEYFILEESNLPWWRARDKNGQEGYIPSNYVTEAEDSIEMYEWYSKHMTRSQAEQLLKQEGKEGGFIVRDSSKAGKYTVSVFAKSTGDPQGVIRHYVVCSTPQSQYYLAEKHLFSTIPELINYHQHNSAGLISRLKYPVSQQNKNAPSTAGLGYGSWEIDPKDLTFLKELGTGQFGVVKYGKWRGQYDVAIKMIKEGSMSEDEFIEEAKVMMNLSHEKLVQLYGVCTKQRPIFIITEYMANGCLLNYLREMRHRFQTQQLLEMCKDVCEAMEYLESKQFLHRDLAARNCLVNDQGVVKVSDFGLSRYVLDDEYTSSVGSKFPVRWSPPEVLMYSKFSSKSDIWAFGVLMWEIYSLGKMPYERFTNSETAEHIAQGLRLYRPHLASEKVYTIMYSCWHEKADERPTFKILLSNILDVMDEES
Description: as §1, §2, §3

ZAP70 = ZAP70 (Homo sapiens (Human), UniProt P43403)
Description: as §1, §2, §3

MERTK (cMER) = MERTK (cMER) (Homo sapiens (Human), UniProt Q12866)
MERTK (cMER), sequence (Q12866 21-999): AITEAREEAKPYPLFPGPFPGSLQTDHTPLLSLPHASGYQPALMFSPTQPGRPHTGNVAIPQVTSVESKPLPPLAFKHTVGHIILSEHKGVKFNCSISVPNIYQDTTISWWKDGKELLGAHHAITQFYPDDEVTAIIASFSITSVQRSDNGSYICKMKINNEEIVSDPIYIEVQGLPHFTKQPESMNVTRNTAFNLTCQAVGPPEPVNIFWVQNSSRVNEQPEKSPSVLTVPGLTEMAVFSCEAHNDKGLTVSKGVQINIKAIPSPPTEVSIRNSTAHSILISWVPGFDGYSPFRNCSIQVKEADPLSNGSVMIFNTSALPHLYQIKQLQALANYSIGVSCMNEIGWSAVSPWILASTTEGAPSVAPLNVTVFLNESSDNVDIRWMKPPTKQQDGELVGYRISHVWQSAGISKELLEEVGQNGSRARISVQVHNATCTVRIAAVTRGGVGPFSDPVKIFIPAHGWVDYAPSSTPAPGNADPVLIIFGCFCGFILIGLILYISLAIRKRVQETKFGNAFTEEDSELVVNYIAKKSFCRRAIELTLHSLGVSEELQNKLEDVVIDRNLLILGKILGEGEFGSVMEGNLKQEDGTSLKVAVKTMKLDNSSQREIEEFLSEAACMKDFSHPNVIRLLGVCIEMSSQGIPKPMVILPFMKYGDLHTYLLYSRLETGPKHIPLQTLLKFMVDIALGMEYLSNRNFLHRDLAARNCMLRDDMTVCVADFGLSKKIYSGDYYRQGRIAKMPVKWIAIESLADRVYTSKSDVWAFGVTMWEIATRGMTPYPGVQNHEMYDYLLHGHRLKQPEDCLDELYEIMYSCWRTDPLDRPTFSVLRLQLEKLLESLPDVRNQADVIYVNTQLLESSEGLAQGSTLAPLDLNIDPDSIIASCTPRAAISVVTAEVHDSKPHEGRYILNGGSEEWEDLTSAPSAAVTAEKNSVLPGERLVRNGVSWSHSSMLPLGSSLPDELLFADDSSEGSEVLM
Description: as §1, §2, §3

RPS6KA1 (RSX1) = RPS6KA1 (RSX1) (Homo sapiens (Human), UniProt Q15418)
Description: as §1, §2, §3

JAK2 = JAK2 (Homo sapiens (Human), UniProt O60674)
JAK2, sequence (O60674 whole entry): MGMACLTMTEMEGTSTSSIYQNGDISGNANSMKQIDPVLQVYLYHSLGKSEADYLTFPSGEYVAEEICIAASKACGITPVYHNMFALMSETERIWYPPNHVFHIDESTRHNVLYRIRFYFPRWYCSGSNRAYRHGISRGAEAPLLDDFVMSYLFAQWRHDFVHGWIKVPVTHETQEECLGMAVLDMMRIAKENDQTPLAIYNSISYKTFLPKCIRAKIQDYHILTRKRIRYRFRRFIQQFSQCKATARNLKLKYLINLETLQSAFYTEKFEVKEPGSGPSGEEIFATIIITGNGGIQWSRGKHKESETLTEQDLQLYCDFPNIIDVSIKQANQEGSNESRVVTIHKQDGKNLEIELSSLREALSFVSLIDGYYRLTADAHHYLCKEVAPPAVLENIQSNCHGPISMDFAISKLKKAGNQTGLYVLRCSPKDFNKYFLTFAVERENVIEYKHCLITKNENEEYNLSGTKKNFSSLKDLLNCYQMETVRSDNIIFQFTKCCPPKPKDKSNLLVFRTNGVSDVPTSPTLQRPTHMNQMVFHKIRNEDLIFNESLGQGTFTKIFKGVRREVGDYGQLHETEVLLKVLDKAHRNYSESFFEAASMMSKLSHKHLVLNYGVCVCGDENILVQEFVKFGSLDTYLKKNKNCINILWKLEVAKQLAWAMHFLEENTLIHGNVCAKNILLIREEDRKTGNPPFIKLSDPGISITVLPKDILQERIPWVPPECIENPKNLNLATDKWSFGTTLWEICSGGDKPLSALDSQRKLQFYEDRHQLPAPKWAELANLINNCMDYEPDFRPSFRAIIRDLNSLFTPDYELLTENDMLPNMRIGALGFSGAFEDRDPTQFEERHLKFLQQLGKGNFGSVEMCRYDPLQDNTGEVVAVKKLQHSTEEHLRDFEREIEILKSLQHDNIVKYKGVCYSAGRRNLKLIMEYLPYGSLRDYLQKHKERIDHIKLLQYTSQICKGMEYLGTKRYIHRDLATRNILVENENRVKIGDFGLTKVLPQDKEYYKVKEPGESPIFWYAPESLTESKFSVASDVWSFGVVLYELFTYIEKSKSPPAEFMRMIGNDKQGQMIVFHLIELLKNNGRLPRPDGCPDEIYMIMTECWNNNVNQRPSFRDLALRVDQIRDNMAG
Description: as §1, §2, §3

FLT4 (VEGFR3) = FLT4 (VEGFR3) (Homo sapiens (Human), UniProt P35916)
Description: as §1, §2, §3

PRKAA (PKA) = PRKAA (PKA) (Homo sapiens (Human), UniProt P17612)
Description: as §1, §2, §3

NTRK2 (TRKB) = NTRK2 (TRKB) (Homo sapiens (Human), UniProt Q16620)
NTRK2 (TRKB), sequence (Q16620 32-822): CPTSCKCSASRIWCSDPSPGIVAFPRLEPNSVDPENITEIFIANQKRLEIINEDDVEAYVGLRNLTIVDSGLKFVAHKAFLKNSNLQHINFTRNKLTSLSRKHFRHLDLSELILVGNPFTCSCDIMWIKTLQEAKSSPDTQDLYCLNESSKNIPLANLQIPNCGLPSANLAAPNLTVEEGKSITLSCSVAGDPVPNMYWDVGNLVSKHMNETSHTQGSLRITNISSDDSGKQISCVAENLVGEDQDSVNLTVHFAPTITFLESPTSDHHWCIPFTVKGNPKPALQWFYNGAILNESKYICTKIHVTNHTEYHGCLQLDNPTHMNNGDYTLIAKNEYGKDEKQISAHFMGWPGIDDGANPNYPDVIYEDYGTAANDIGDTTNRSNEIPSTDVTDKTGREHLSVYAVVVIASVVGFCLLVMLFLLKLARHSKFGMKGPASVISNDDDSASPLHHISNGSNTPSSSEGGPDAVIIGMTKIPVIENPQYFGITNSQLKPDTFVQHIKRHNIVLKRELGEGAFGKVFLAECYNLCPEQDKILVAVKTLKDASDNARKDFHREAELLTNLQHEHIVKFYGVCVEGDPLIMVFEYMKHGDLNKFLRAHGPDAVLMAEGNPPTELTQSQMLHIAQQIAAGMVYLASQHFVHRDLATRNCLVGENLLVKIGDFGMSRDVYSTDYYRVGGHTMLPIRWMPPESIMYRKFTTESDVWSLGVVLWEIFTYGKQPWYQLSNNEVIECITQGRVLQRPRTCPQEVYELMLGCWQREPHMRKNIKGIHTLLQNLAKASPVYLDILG
Description: as §1, §2, §3

CSF1R (FMS) = CSF1R (FMS) (Homo sapiens (Human), UniProt P07333)
Description: as §1, §2, §3

TYK2 = TYK2 (Homo sapiens (Human), UniProt P29597)
Description: as §1, §2, §3

ABL1 = ABL1 (Homo sapiens (Human), UniProt P00519)
Description: as §1, §2, §3

ROS1 = ROS1 (Homo sapiens (Human), UniProt P08922)
Description: as §1, §2, §3

PDGFRA (PDGFR alpha) = PDGFRA (PDGFR alpha) (Homo sapiens (Human), UniProt P16234)
Description: as §1, §2, §3

RET = RET (Homo sapiens (Human), UniProt P07949)
Description: as §1, §2, §3

KIT = KIT (Homo sapiens (Human), UniProt P10721)
Description: as §1, §2, §3

ROCK2 = ROCK2 (Homo sapiens (Human), UniProt O75116)
Description: as §1, §2, §3

With CN1CCN(Cc2cccc(-c3cnc4[nH]cc(-c5cc(CNCCc6ccc(O)cc6)ccc5F)c4c3)c2)CC1 [Compound 1] the “Percentage inhibition SYK” value (SYK) was 4%, the “Percentage inhibition MET (cMet)” value (MET (cMet)) was 15% and the “Percentage inhibition ALK” value (ALK) was 45%. For the same molecule, the “Percentage inhibition MAPK1 (ERK2)” value (MAPK1 (ERK2)) was 11%, the “Percentage inhibition TYRO3 (RSE)” value (TYRO3 (RSE)) was 51% and the “Percentage inhibition CHUK (IKKalpha)” value (CHUK (IKKalpha)) was 43%. For the same molecule, the “Percentage inhibition JAK3” value (JAK3) was 42%, the “Percentage inhibition PLK1” value (PLK1) was 4% and the “Percentage inhibition FGFR2” value (FGFR2) was 58%. For the same molecule, the “Percentage inhibition PTK2 (FAK)” value (PTK2 (FAK)) was 22%, the “Percentage inhibition KDR (VEGFR2)” value (KDR (VEGFR2)) was 85% and the “Percentage inhibition CSK” value (CSK) was 7%. The “Percentage inhibition AURKA (Aurora A)” value (AURKA (Aurora A)) was 14%, the “Percentage inhibition FLT1 (VEGFR1)” value (FLT1 (VEGFR1)) was 53% and the “Percentage inhibition LCK” value (LCK) was 50%. For the same molecule, the “Percentage inhibition NTRK1 (TRKA)” value (NTRK1 (TRKA)) was 53%, the “Percentage inhibition BTK” value (BTK) was 12% and the “Percentage inhibition ZAP70” value (ZAP70) was 4%. The “Percentage inhibition MERTK (cMER)” value (MERTK (cMER)) was 98%, the “Percentage inhibition RPS6KA1 (RSX1)” value (RPS6KA1 (RSX1)) was 38% and the “Percentage inhibition JAK2” value (JAK2) was 19%. The “Percentage inhibition FLT4 (VEGFR3)” value (FLT4 (VEGFR3)) was 64%, the “Percentage inhibition PRKAA (PKA)” value (PRKAA (PKA)) was 8% and the “Percentage inhibition NTRK2 (TRKB)” value (NTRK2 (TRKB)) was 61%. For the same molecule, the “Percentage inhibition CSF1R (FMS)” value (CSF1R (FMS)) was 62%, the “Percentage inhibition TYK2” value (TYK2) was 5% and the “Percentage inhibition ABL1” value (ABL1) was 38%. For the same molecule, the “Percentage inhibition ROS1” value (ROS1) was 64%, the “Percentage inhibition PDGFRA (PDGFR alpha)” value (“Percentage inhibition PDGFRA” below) (PDGFRA (PDGFR alpha)) was 57% and the “Percentage inhibition RET” value (RET) was 84%. For the same molecule, the “Percentage inhibition KIT” value (KIT) was 8% and the “Percentage inhibition ROCK2” value (ROCK2) was 16%.

With CN1CCN(Cc2cccc(-c3cnc4[nH]cc(-c5cc(CNCc6ccccc6)ccc5F)c4c3)c2)CC1 [Compound 2] the “Percentage inhibition SYK” value (SYK) was 11%, the “Percentage inhibition MET (cMet)” value (MET (cMet)) was 92% and the “Percentage inhibition ALK” value (ALK) was 12%. For the same molecule, the “Percentage inhibition MAPK1 (ERK2)” value (MAPK1 (ERK2)) was 6%, the “Percentage inhibition TYRO3 (RSE)” value (TYRO3 (RSE)) was 67% and the “Percentage inhibition CHUK (IKKalpha)” value (CHUK (IKKalpha)) was 14%. The “Percentage inhibition JAK3” value (JAK3) was 18%, the “Percentage inhibition PLK1” value (PLK1) was 4% and the “Percentage inhibition FGFR2” value (FGFR2) was 25%. The “Percentage inhibition PTK2 (FAK)” value (PTK2 (FAK)) was 33%, the “Percentage inhibition KDR (VEGFR2)” value (KDR (VEGFR2)) was 68% and the “Percentage inhibition CSK” value (CSK) was 12%. The “Percentage inhibition AURKA (Aurora A)” value (AURKA (Aurora A)) was 11%, the “Percentage inhibition FLT1 (VEGFR1)” value (FLT1 (VEGFR1)) was 19% and the “Percentage inhibition LCK” value (LCK) was 63%. For the same molecule, the “Percentage inhibition NTRK1 (TRKA)” value (NTRK1 (TRKA)) was 96%, the “Percentage inhibition BTK” value (BTK) was 10% and the “Percentage inhibition ZAP70” value (ZAP70) was 4%. The “Percentage inhibition MERTK (cMER)” value (MERTK (cMER)) was 96%, the “Percentage inhibition RPS6KA1 (RSX1)” value (RPS6KA1 (RSX1)) was 16% and the “Percentage inhibition JAK2” value (JAK2) was 23%. For the same molecule, the “Percentage inhibition FLT4 (VEGFR3)” value (FLT4 (VEGFR3)) was 33%, the “Percentage inhibition PRKAA (PKA)” value (PRKAA (PKA)) was 6% and the “Percentage inhibition NTRK2 (TRKB)” value (NTRK2 (TRKB)) was 103%. For the same molecule, the “Percentage inhibition CSF1R (FMS)” value (CSF1R (FMS)) was 41%, the “Percentage inhibition TYK2” value (TYK2) was 5% and the “Percentage inhibition ABL1” value (ABL1) was 16%. For the same molecule, the “Percentage inhibition ROS1” value (ROS1) was 77%, the “Percentage inhibition PDGFRA” value (PDGFRA (PDGFR alpha)) was 31% and the “Percentage inhibition RET” value (RET) was 48%. The “Percentage inhibition KIT” value (KIT) was 49% and the “Percentage inhibition ROCK2” value (ROCK2) was 5%.

In the case of CN1CCN(Cc2cccc(-c3cnc4[nH]cc(-c5cc(NC(=O)Nc6ccccc6)ccc5F)c4c3)c2)CC1 [Compound 3], the “Percentage inhibition SYK” value (SYK) is reported as 8%, the “Percentage inhibition MET (cMet)” value (MET (cMet)) is reported as 16% and the “Percentage inhibition ALK” value (ALK) is reported as 17%. For the same molecule, the “Percentage inhibition MAPK1 (ERK2)” value (MAPK1 (ERK2)) was 6%, the “Percentage inhibition TYRO3 (RSE)” value (TYRO3 (RSE)) was 19% and the “Percentage inhibition CHUK (IKKalpha)” value (CHUK (IKKalpha)) was 4%. The “Percentage inhibition JAK3” value (JAK3) was 13%, the “Percentage inhibition PLK1” value (PLK1) was 6% and the “Percentage inhibition FGFR2” value (FGFR2) was 37%. For the same molecule, the “Percentage inhibition PTK2 (FAK)” value (PTK2 (FAK)) was 24%, the “Percentage inhibition KDR (VEGFR2)” value (KDR (VEGFR2)) was 55% and the “Percentage inhibition CSK” value (CSK) was 8%. The “Percentage inhibition AURKA (Aurora A)” value (AURKA (Aurora A)) was 14%, the “Percentage inhibition FLT1 (VEGFR1)” value (FLT1 (VEGFR1)) was 19% and the “Percentage inhibition LCK” value (LCK) was 42%. The “Percentage inhibition NTRK1 (TRKA)” value (NTRK1 (TRKA)) was 69%, the “Percentage inhibition BTK” value (BTK) was 10% and the “Percentage inhibition ZAP70” value (ZAP70) was 5%. For the same molecule, the “Percentage inhibition MERTK (cMER)” value (MERTK (cMER)) was 75%, the “Percentage inhibition RPS6KA1 (RSX1)” value (RPS6KA1 (RSX1)) was 41% and the “Percentage inhibition JAK2” value (JAK2) was 13%. For the same molecule, the “Percentage inhibition FLT4 (VEGFR3)” value (FLT4 (VEGFR3)) was 37%, the “Percentage inhibition PRKAA (PKA)” value (PRKAA (PKA)) was 7% and the “Percentage inhibition NTRK2 (TRKB)” value (NTRK2 (TRKB)) was 94%. The “Percentage inhibition CSF1R (FMS)” value (CSF1R (FMS)) was 26%, the “Percentage inhibition TYK2” value (TYK2) was 7% and the “Percentage inhibition ABL1” value (ABL1) was 22%. The “Percentage inhibition ROS1” value (ROS1) was 18%, the “Percentage inhibition PDGFRA” value (PDGFRA (PDGFR alpha)) was 21% and the “Percentage inhibition RET” value (RET) was 23%. The “Percentage inhibition KIT” value (KIT) was 15% and the “Percentage inhibition ROCK2” value (ROCK2) was 9%.
